For the assay, the target named is T1, hVDAC2 (Homo sapiens, UniProt P45880).
T1 sequence (P45880 2-294): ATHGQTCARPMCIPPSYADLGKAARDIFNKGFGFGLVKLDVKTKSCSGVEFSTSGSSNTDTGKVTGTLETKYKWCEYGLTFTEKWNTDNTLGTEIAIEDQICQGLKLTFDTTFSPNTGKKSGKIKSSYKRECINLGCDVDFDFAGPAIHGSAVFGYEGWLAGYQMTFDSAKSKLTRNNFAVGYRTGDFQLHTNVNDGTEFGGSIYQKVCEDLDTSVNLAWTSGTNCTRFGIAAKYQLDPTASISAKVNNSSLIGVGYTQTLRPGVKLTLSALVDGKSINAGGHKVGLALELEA
Briefly: biochemical.

`CCOc1ccccc1-n1c(C(C)N2CCN(C(=O)COc3ccc(Cl)cc3)CC2)nc2ccccc2c1=O` (stereo not shown) [erastin]: the EC50 turned out to be 0.0526 ± 0.0282 µM.

The term EC50 denotes the concentration that produces a half-maximal response. Low values mean a more potent agent, high ones a less potent agent.

For the origin of these results see publication PMC3082971 (Biochemistry, 2011).
